In patent publication EP0237495A2, “Halogenides of the ester of 2,N,N,N-dimethyl-alkyl-amino-ethanol with substituted acetic acid and pharmaceutical compositions having antiinflammatory and antiseptic activities containing same” (Sigma-Tau Industrie Farmaceutiche Riunite S.p.A., priority 1986, dated 1987):

Legend:
[1] = tested on: acetic acid-induced peritoneal exudation; assay: Antiexudative activity (acetic acid-induced peritoneal exudation); format: in vivo; conditions: rat, 1 hour before i.p. 1% acetic acid
Protocol: The test was carried out in the rat. The products were orally administered 1 hour before the intraperitoneal injection of 0.5 ml of 1% acetic acid. Along with the irritant agent, 1 ml of 0,1% Blue Evans was injected i.v. to the rats. The same procedure as that described above was followed for collecting the peritoneal exudate and rating the irritation degree.

[2] = tested on: Candida utilis; format: cell-based; conditions: Williopsis jadinii; Candida utilis BB 0173
[3] = tested on: Staphylococcus aureus; format: cell-based; conditions: ATCC6538P; Staphylococcus aureus ATCC 6538P
[4] = tested on: Penicillium funicolosum; format: cell-based; conditions: ATCC9644; Penicillium funicolosum ATCC 9644
[5] = tested on: Bacillus subtilis; format: cell-based; conditions: ATCC6633; Bacillus subtilis ATCC 6633
[6] = tested on: Bordetella bronchiseptica; format: cell-based; conditions: ATCC4617; Bordetella bronchiseptica ATCC 4617
[7] = tested on: Klebsiella pneumoniae; format: cell-based; conditions: ATCC10031; Klebsiella pneumoniae ATCC 10031
[8] = tested on: Saccharomyces cerevisiae; format: cell-based; conditions: Saccharomyces cerevisiae BB 0193
[9] = tested on: Staphylococcus epidermidis; format: cell-based; conditions: Staphylococcus epidermidis BB 0223
[10] = tested on: Bacillus antracis; format: cell-based
[11] = tested on: Rhodotorula rubra; format: cell-based; conditions: Rhodotorula rubra ISM 7198
[12] = tested on: Pseudomonas aeruginosa; format: cell-based; conditions: ATCC14502; Pseudomonas aeruginosa ATCC 14502
[13] = tested on: Streptococcus faecalis; format: cell-based; conditions: Enterococcus faecalis, ATCC8043; Streptococcus faecalis ATCC 8043
[14] = tested on: Aspergillus niger; format: cell-based; conditions: ATCC9642; Aspergillus niger ATCC 9642
[15] = tested on: Proteus vulgaris; format: cell-based; conditions: ATCC6897; Proteus vulgaris ATCC 6897
[16] = tested on: Pseudomonas maltophilia; format: cell-based; conditions: Stenotrophomonas maltophilia, ATCC13637; Pseudomonas maltophilia ATCC 13637
[17] = tested on: Candida albicans; format: cell-based; conditions: ATCC10231; Candida albicans ATCC 10231
[18] = tested on: Streptococcus pyogenes; format: cell-based; conditions: ATCC12380; Streptococcus pyogenes ATCC 12380
[19] = tested on: Sarcina lutea; format: cell-based; conditions: Micrococcus luteus, ATCC9341; Sarcina lutea ATCC 9341
[20] = tested on: Escherichia coli; format: cell-based; conditions: Escherichia coli K 12
[21] = tested on: Cryptococcus neoformans; format: cell-based; conditions: Cryptococcus neoformans ISM 7182
[22] = tested on: rat subcutaneous tissue; assay: Topical tolerability in rat subcutaneous tissue; format: in vivo; set-up: key: 0: no response; 1: moderate response; 2: sharp response; 3: marked response; 4: extreme response; conditions: 1 ml of 1% suspension s.c., arbitrary scale 0-4; for Irritation degree 4h: 4 hours after administration; for Irritation degree 24h: 24 hours after administration
Protocol: The test was carried out on rats using two different test procedures. The products were tested at 1% concentration. According to the first procedure, 1 ml of the test suspensions were injected subcutaneously (s.c.) in the side of animals. 4 or 24 hours following administration, the animals were sacrificed, and the degree of subcutaneous irriration estimated.
The presence of erythema, oedema and necrosis was assessed based on the following arbitrary rating scale • - 0 : no response • - 1 : moderate response • - 2 : sharp response • - 3 : marked response • - 4 : extreme response

[23] = tested on: rat peritoneum; conditions: in vivo, ip
[24] = tested on: mouse; assay: in vivo; conditions: ip
Protocol: (§1) The test was carried out in the mouse. The products were administered by intraperitoneal injection. The death rate was assessed daily over a period of 14 days following treatment.

[25] = in vivo; conditions: mouse, ip
Protocol: as §1

SMILES | % Inhibition with respect to controls ([1]; 200 mg/kg orally) | % Inhibition with respect to controls ([1]; 400 mg/kg orally) | MIC [2] | MIC [3] | MIC [4] | MIC [5] | MIC [6] | MIC [7] | MIC [8] | MIC [9] | MIC [10] | MIC [11] | MIC [12] | MIC [13] | MIC [14] | MIC [15] | MIC [16] | MIC [17] | MIC [18] | MIC [19] | further results
CC(C)Cc1ccc(C(C)C(=O)O)cc1 (stereo not drawn) [ibuprofen, Ibuprofen, reference compound] | 60% | 58% | – | – | – | – | – | – | – | – | – | – | – | – | – | – | – | – | – | – | –
N=C(NCCCCCCNC(=N)NC(=N)Nc1ccc(Cl)cc1)NC(=N)Nc1ccc(Cl)cc1 [Chlorexidine, Chlorexidine gluconate, reference compound] | – | – | 40 µg/mL | ≤ 5 µg/mL | > 80 µg/mL | ≤ 5 µg/mL | 40 µg/mL | 40 µg/mL | 80 µg/mL | 10 µg/mL | 20 µg/mL | 40 µg/mL | 80 µg/mL | 20 µg/mL | 80 µg/mL | 40 µg/mL | 80 µg/mL | 20 µg/mL | 10 µg/mL | 20 µg/mL | MIC [20]: 10 µg/mL; MIC [21]: 40 µg/mL
CCCCCCCCCCCC[N+](C)(C)CCOC(=O)Cc1c(C)n(C(=O)c2ccc(Cl)cc2)c2ccc(OC)cc12 [RE 9, iodide of the ester of 2-N,N,N-dimethyl-dodecyl, amino-ethanol with 1-(p-chlorobenzoyl)-2-methyl-5-methoxy-3-indolyl-acetic acid] | 35% | 40% | ≤ 5 µg/mL | ≤ 5 µg/mL | ≤ 5 µg/mL | ≤ 5 µg/mL | 80 µg/mL | 80 µg/mL | ≤ 5 µg/mL | ≤ 5 µg/mL | ≤ 5 µg/mL | ≤ 5 µg/mL | 80 µg/mL | ≤ 5 µg/mL | ≤ 5 µg/mL | 20 µg/mL | 80 µg/mL | ≤ 5 µg/mL | ≤ 5 µg/mL | ≤ 5 µg/mL | Irritation degree 4h [22]: 2; Irritation degree 24h [22]: 2; Percent increase in response with respect to controls [23]: 95%; Mortality ([24]; 62.5 mg/kg): 5/6; Mortality ([24]; 125 mg/kg): 6/6; Mortality ([24]; 250 mg/kg): 5/6; Mortality ([24]; 500 mg/kg): 6/6; mortality at 336 h ([25]; 31.2 mg/kg): 0%; mortality at 336 h ([25]; 62.5 mg/kg): 83.3%; mortality at 336 h ([25]; 125 mg/kg): 100%; mortality at 336 h ([25]; 250 mg/kg): 83.3%; mortality at 336 h ([25]; 500 mg/kg): 100%; MIC [20]: 80 µg/mL; MIC [21]: ≤ 5 µg/mL
CCCCCCCCCC[N+](C)(C)CCOC(=O)Cc1c(C)n(C(=O)c2ccc(Cl)cc2)c2ccc(OC)cc12 [RE 8, iodide of the ester of 2-N,N,N-dimethyl-decyl --amino-ethanol with 1-(p-chlorobenzoyl)-2-methyl-5-methoxy-3-indolyl-acetic acid] | 31% | 46% | ≤ 5 µg/mL | ≤ 5 µg/mL | ≤ 5 µg/mL | 10 µg/mL | 80 µg/mL | > 80 µg/mL | ≤ 5 µg/mL | ≤ 5 µg/mL | 10 µg/mL | ≤ 5 µg/mL | 80 µg/mL | 10 µg/mL | ≤ 5 µg/mL | 80 µg/mL | 80 µg/mL | ≤ 5 µg/mL | 10 µg/mL | 10 µg/mL | Irritation degree 4h [22]: 2; Irritation degree 24h [22]: 2; Percent increase in response with respect to controls [23]: 97%; Mortality ([24]; 7.8 mg/kg): 0/6; Mortality ([24]; 31.2 mg/kg): 6/6; Mortality ([24]; 62.5 mg/kg): 6/6; Mortality ([24]; 125 mg/kg): 5/6; Mortality ([24]; 250 mg/kg): 6/6; mortality at 336 h ([25]; 7.8 mg/kg): 0%; mortality at 336 h ([25]; 15.6 mg/kg): 0%; mortality at 336 h ([25]; 31.2 mg/kg): 100%; mortality at 336 h ([25]; 62.5 mg/kg): 100%; mortality at 336 h ([25]; 125 mg/kg): 83.3%; mortality at 336 h ([25]; 250 mg/kg): 100%; MIC [20]: > 80 µg/mL; MIC [21]: ≤ 5 µg/mL
CCCCCCCC[N+](C)(C)CCOC(=O)C(C)c1ccc(CC(C)C)cc1 (stereo not drawn) [AF 150, bromide of the ester of 2-N,N,N-dimethyl-octyl-amino-ethanol with p-isobutylphenyl-alpha-methylacetic acid] | 37% | 51% | ≤ 5 µg/mL | ≤ 5 µg/mL | 10 µg/mL | 10 µg/mL | 10 µg/mL | 10 µg/mL | ≤ 5 µg/mL | 10 µg/mL | 10 µg/mL | ≤ 5 µg/mL | 10 µg/mL | 20 µg/mL | 10 µg/mL | 10 µg/mL | 40 µg/mL | ≤ 5 µg/mL | 20 µg/mL | ≤ 5 µg/mL | Irritation degree 4h [22]: 2; Irritation degree 24h [22]: 1; Percent increase in response with respect to controls [23]: 185%; Mortality ([24]; 7.8 mg/kg): 0/6; Mortality ([24]; 31.2 mg/kg): 6/6; Mortality ([24]; 62.5 mg/kg): 6/6; Mortality ([24]; 125 mg/kg): 5/6; mortality at 336 h ([25]; 7.8 mg/kg): 0%; mortality at 336 h ([25]; 15.6 mg/kg): 0%; mortality at 336 h ([25]; 31.2 mg/kg): 100%; mortality at 336 h ([25]; 62.5 mg/kg): 100%; mortality at 336 h ([25]; 125 mg/kg): 83.3%; MIC [20]: 80 µg/mL; MIC [21]: ≤ 5 µg/mL
